The results in this text go back to patent publication US12624044B2, “SMARCA degraders and uses thereof” (Kymera Therapeutics, Inc., priority 2019, dated 2026).

The assay addresses SMARCA2 (Homo sapiens, UniProt P51531). The assay can be described thus: MSD SMARCA2 degradation in NCI-H1299 cell line (24 h). It counts as cell-based. The arrangement: HC: NCI-H1299 cells treated with DMSO; host or cells: NCI-H1299. As to conditions: for Dmax: NCI-H1299, NCI-H1299 cells; for DC50: NCI-H1299 cells, read-out: SMARCA2 MSD H1299 degradation 24 h: External Abs-DC50. The procedure, abridged:
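SMARCA2 measured by MSD electrochemiluminescence (primary 0.3 ug/ml, secondary 1 ug/ml) on lysates from NCI-H1299 cells exposed to compounds for 24 h across nine 3-fold dilutions. Signal scaled from A2780 cells (no SMARCA2) to DMSO-treated H1299 controls, and maximal degradation after 24 h reported in letter categories.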

Sequence of SMARCA2 (P51531 whole entry): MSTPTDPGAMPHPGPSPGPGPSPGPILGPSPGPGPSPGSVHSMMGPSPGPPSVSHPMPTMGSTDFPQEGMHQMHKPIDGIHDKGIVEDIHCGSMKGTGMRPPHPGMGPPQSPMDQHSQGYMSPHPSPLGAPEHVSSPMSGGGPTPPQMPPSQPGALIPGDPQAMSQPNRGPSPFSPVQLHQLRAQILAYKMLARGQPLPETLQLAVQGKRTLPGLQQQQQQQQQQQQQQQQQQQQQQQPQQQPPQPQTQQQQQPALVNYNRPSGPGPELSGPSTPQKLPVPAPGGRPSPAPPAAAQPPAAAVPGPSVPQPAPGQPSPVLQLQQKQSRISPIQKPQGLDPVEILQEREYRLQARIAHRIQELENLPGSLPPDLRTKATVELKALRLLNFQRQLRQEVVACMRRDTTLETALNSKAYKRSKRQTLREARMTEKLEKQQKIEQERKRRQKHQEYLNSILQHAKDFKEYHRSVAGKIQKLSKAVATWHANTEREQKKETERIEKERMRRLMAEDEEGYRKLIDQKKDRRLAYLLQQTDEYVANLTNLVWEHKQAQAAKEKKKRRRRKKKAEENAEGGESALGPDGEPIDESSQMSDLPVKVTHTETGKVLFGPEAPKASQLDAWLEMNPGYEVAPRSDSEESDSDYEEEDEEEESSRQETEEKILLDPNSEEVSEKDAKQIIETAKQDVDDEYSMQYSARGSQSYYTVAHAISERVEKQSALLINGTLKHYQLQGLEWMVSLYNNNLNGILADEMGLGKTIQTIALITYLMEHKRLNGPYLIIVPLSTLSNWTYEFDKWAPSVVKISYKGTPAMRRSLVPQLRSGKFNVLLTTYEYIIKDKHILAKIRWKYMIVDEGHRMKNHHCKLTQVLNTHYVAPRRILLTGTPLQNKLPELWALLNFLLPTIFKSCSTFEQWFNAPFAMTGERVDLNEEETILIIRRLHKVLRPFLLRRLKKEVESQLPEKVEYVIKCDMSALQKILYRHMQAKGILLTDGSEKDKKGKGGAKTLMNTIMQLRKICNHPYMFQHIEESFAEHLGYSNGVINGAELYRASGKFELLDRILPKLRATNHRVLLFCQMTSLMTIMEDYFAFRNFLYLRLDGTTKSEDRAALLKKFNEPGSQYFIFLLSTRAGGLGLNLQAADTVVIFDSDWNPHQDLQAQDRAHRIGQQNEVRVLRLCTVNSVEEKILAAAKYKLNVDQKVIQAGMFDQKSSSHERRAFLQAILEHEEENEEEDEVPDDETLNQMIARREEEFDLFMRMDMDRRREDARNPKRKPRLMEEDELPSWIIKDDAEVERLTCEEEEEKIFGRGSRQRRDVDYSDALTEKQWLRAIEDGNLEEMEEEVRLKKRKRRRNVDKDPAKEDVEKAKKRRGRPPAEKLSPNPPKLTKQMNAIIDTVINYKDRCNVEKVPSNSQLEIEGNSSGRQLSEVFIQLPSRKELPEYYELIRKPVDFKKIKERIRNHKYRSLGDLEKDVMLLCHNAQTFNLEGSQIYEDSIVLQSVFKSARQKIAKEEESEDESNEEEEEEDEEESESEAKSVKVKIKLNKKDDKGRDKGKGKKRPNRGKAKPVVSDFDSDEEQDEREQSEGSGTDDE

Broadly, the Dmax is the greatest extent of degradation seen. The DC50 is the midpoint of the concentration-degradation curve. Turning to `Cc1ncsc1-c1ccc(CNC(=O)[C@@H]2C[C@@H](O)CN2C(=O)[C@@H](NC(=O)CCCCCN2CCC(c3cnc(N4C5CCC4CN(c4cc(-c6ccccc6O)nnc4N)C5)nc3)CC2)C(C)(C)C)cc1` [I-210, (2S,4R)-1-[(2S)-2-[6-[4-[2-[3-[3-amino-6-(2-hydroxyphenyl)pyridazin-4-yl]-3,8-diazabicyclo[3.2.1]octan-8-yl]pyrimidin-5-yl]-1-piperidyl]hexanoylamino]-3,3-dimethyl-butanoyl]-4-hydroxy-N-[[4-(4-methylthiazol-5-yl)phenyl]methyl]pyrrolidine-2-carboxamide], the Dmax was > 90% and the DC50 lay in the range of 501 to 1000 nM.

`Cn1c(=O)n(C2CCC(=O)NC2=O)c2ccc(CN3CCC(OCCCN4CCN(Cc5ccc(-c6cc(-c7ccccc7O)nnc6N)cc5)CC4)CC3)cc21` (stereo not shown) [I-158]: the Dmax lay within 70 to 90% and the DC50 lay within 100 to 500 nM.

For the compound `Nc1nnc(-c2ccccc2O)cc1N1C[C@H]2C[C@@H]1CN2c1cccc(Cn2cc(CCCCOc3cccc4c3C(=O)N(C3CCC(=O)NC3=O)C4=O)nn2)n1` (stereo partly shown) [I-43], the Dmax was in the range of 70 to 90% and the DC50 was > 1000 nM.

As for `CN(Cc1ccc(N2CCN(c3cc(-c4ccccc4O)nnc3N)CC2)cc1)C1CCN(Cc2cccc3c2n(C)c(=O)n3C2CCC(=O)NC2=O)CC1` (stereo not shown) [I-109], the Dmax lay within 70 to 90% and the DC50 lay in the range of 100 to 500 nM.

As to `Cn1c(=O)n(C2CCC(=O)NC2=O)c2cccc(CN3CCC(n4cc(-c5cc(-c6ccccc6O)nnc5N)cn4)CC3)c21` (stereo not shown) [I-173], the Dmax was < 50% and the DC50 is > 1000 nM.

For the compound `Cn1c(=O)n(C2CCC(=O)NC2=O)c2cccc(CNCCCCCCc3cn(Cc4cccc(N5C[C@H]6C[C@@H]5CN6/C=C/C(=O)c5ccccc5O)n4)nn3)c21` (stereo partly shown) [I-82], the Dmax is < 50% and the DC50 was > 1000 nM.

On to `Cn1c(=O)n(C2CCC(=O)NC2=O)c2ccc(C#CCCCCCc3cn(Cc4cccc(N5C[C@H]6C[C@@H]5CN6/C=C/C(=O)c5ccccc5O)n4)nn3)cc21` (stereo partly shown) [I-62], for which the Dmax was < 50% and the half-maximal degradation concentration (DC50) is > 1000 nM.

With `CN(CCCCc1ccc2c(c1)n(C)c(=O)n2C1CCC(=O)NC1=O)Cc1ccc(N2CCN(c3cc(-c4ccccc4O)nnc3N)CC2)cc1` (stereo not shown) [I-122], the Dmax was < 50% and the DC50 was > 1000 nM.

Regarding `Cn1c(=O)n(C2CCC(=O)NC2=O)c2cccc(CCCCCCOc3cccc(CN4CCN(c5cc(-c6ccccc6O)nnc5N)CC4)c3)c21` (stereo not shown) [I-98], the Dmax lay in the range of 50 to 70% and the DC50 was 501 to 1000 nM.

Take `Cn1c(=O)n(C2CCC(=O)NC2=O)c2cccc(CCCOCCOCCOCCN3CCN(Cc4ccc(-c5cc(-c6ccccc6O)nnc5N)cc4)CC3)c21` (stereo not shown) [I-108]: the Dmax was < 50% and the DC50 was > 1000 nM.

As for `CN(Cc1ccc(N2CCN(c3cc(-c4ccccc4O)nnc3N)CC2)cc1)C[C@@H]1CN(CCCc2cccc3c2n(C)c(=O)n3C2CCC(=O)NC2=O)CCO1` (stereo partly shown) [I-117], the Dmax is 70 to 90% and the DC50 lay within 100 to 500 nM.

In the case of `Cn1c(=O)n(C2CCC(=O)NC2=O)c2ccc(CN3CCC(n4cc(-c5cc(-c6ccccc6O)nnc5N)cn4)CC3)cc21` (stereo not shown) [I-181], the Dmax was < 50% and the DC50 was > 1000 nM.

Regarding `O=C(CCCCCCCCOc1ccnc(N2C[C@H]3C[C@@H]2CN3/C=C/C(=O)c2ccccc2O)c1)NCCOCCOCCOCCNc1cccc2c1C(=O)N(C1CCC(=O)NC1=O)C2=O` (stereo partly shown) [I-17], the DC50 was > 1000 nM.

Regarding `Cn1c(=O)n(C2CCC(=O)NC2=O)c2cccc(C#CCCCc3cn(Cc4cccc(N5C[C@H]6C[C@@H]5CN6/C=C/C(=O)c5ccccc5O)n4)nn3)c21` (stereo partly shown) [I-65], the Dmax was < 50% and the DC50 was > 1000 nM.

On to `Cn1c(=O)n(C2CCC(=O)NC2=O)c2ccc(CN3CCN(Cc4cnc(N5C6CCC5CN(c5cc(-c7ccccc7O)nnc5N)C6)nc4)CC3)cc21` (stereo not shown) [I-163], for which the Dmax was < 50% and the 50% degradation concentration (DC50) was > 1000 nM.

As for `Cn1c(=O)n(C2CCC(=O)NC2=O)c2ccc(CCCNCc3cn(Cc4cccc(N5C[C@H]6C[C@@H]5CN6/C=C/C(=O)c5ccccc5O)n4)nn3)cc21` (stereo partly shown) [I-29], the DC50 is > 1000 nM.

For the compound `Cn1c(=O)n(C2CCC(=O)NC2=O)c2cccc(CCCOCCOCCN3CCN(Cc4ccc(-c5cc(-c6ccccc6O)nnc5N)cc4)CC3)c21` (stereo not shown) [I-107], the Dmax lay within 50 to 70% and the DC50 lay in the range of 100 to 500 nM.

With `Cn1c(=O)n(C2CCC(=O)NC2=O)c2cccc(CCCCCN3CCC[C@@H](Cn4cc(-c5cc(-c6ccccc6O)nnc5N)cn4)C3)c21` (stereo partly shown) [I-190], the Dmax is 70 to 90% and the DC50 lay in the range of 100 to 500 nM.

Consider `Cn1c(=O)n(C2CCC(=O)NC2=O)c2ccc(CCN3CCN(Cc4cnc(N5C6CCC5CN(c5cc(-c7ccccc7O)nnc5N)C6)nc4)CC3)cc21` (stereo not shown) [I-165], for which the Dmax was > 90% and the DC50 is < 100 nM.

For the compound `O=C(CCCCCCCCOc1ccc(N2C[C@H]3C[C@@H]2CN3/C=C/C(=O)c2ccccc2O)nc1)NCCOCCOCCNc1cccc2c1C(=O)N(C1CCC(=O)NC1=O)C2=O` (stereo partly shown) [I-7], the DC50 was > 1000 nM.

As for `Cn1c(=O)n(C2CCC(=O)NC2=O)c2ccc(CNCCCc3cn(Cc4cccc(N5C[C@H]6C[C@@H]5CN6/C=C/C(=O)c5ccccc5O)n4)nn3)cc21` (stereo partly shown) [I-74], the Dmax is < 50% and the DC50 was > 1000 nM.

Turning to `Cn1c(=O)n(C2CCC(=O)NC2=O)c2ccc(CCCOCCOCCOCCOCCOCCNC(=O)CCCCCCCCOc3ccc(N4C[C@H]5C[C@@H]4CN5/C=C/C(=O)c4ccccc4O)nc3)cc21` (stereo partly shown) [I-6], the DC50 is > 1000 nM.

`Cn1c(=O)n(C2CCC(=O)NC2=O)c2ccc(CCCCCCCOc3cccc(CN4CCN(c5cc(-c6ccccc6O)nnc5N)CC4)c3)cc21` (stereo not shown) [I-104]: the Dmax was in the range of 70 to 90% and the DC50 was 100 to 500 nM.

Consider `Cn1c(=O)n(C2CCC(=O)NC2=O)c2cccc(CCCOCC3CN(Cc4ccc(N5CCN(c6cc(-c7ccccc7O)nnc6N)CC5)cc4)C3)c21` (stereo not shown) [I-124], for which the Dmax lay in the range of 70 to 90% and the DC50 was 100 to 500 nM.

In the case of `O=C(CCCCCCCCOc1ccnc(N2C[C@H]3C[C@@H]2CN3/C=C/C(=O)c2ccccc2O)c1)NCCOCCOCCOCCOCCOCCNc1cccc2c1C(=O)N(C1CCC(=O)NC1=O)C2=O` (stereo partly shown) [I-19], the DC50 is > 1000 nM.

In the case of `Cc1ncsc1-c1ccc(CNC(=O)[C@@H]2C[C@@H](O)CN2C(=O)[C@@H](NC(=O)COCCOCCOCCOCCNC(=O)c2ccc(C(C)n3cc(-c4cc(-c5ccccc5O)nnc4N)cn3)cc2)C(C)(C)C)cc1` (stereo partly shown) [I-227], the DC50 is > 1000 nM.

With `Nc1nnc(-c2ccccc2O)cc1N1CCN(c2ccc(CNCCCOCCCc3ccc4c(c3)oc(=O)n4C3CCC(=O)NC3=O)cc2)CC1` (stereo not shown) [I-127], the Dmax is 50 to 70% and the DC50 was > 1000 nM.

As to `Nc1nnc(-c2ccccc2O)cc1N1CCN(c2ccc(CNCCOCCCc3cccc4c3oc(=O)n4C3CCC(=O)NC3=O)cc2)CC1` (stereo not shown) [I-116], the greatest degradation seen (Dmax) was 50 to 70% and the DC50 lay within 501 to 1000 nM.

Take `Cn1c(=O)n(C2CCC(=O)NC2=O)c2cccc(CCCCCCCc3cn(Cc4cccc(N5C[C@H]6C[C@@H]5CN6/C=C/C(=O)c5ccccc5O)n4)nn3)c21` (stereo partly shown) [I-52]: the Dmax was < 50% and the DC50 was > 1000 nM.

As to `CN(CCOCCOCCCc1ccc2c(c1)oc(=O)n2C1CCC(=O)NC1=O)Cc1ccc(N2CCN(c3cc(-c4ccccc4O)nnc3N)CC2)cc1` (stereo not shown) [I-123], the Dmax was in the range of 70 to 90% and the DC50 is 100 to 500 nM.

`O=C(CCCCCCCCOc1ccnc(N2C[C@H]3C[C@@H]2CN3/C=C/C(=O)c2ccccc2O)c1)NCCOCCOCCNc1cccc2c1C(=O)N(C1CCC(=O)NC1=O)C2=O` (stereo partly shown) [I-23]: the DC50 is > 1000 nM.
